# Like-named read-outs stand apart in the source and are kept apart here.
# What was measured:
# [1] = target: T1, PI3Kδ (Homo sapiens, UniProt O00329); experiment: PI3-Kinase HTRF assay, PI3Kδ; type: biochemical; conditions: 10 μM ATP, PIP2 at 10 μM
# T1 construct: purchased Millipore Corporation 14-604-K
# From the text: (§1) A PI3-Kinase HTRF® assay kit (cat No. 33-016) purchased from Millipore Corporation was used to screen compounds provided herein. This assay used specific, high affinity binding of the GRPI pleckstrin homology (PH) domain to PIP3, the product of a Class 1A or 1B PI3 Kinase acting on its physiological substrate PIP2. During the detection phase of the assay, a complex was generated between the GST-tagged PH domain and biotinylated short chain PIP3. The biotinylated PIP3 and the GST-tagged PH domain recruited fluorophores (Streptavidin-Allophycocyanin and Europium-labeled anti-GST respectively) to form the fluorescence resonance energy transfer (FRET) architecture, generating a stable time-resolved FRET signal. The FRET complex was disrupted in a competitive manner by non-biotinylated PIP3, a product formed in the PI3 Kinase assay.
# (§2) PI3 Kinase α, β, γ and δ activity was assayed using the PI3 Kinase HTRF® assay kit (catalogue No. 33-016) purchased from Millipore Corporation. Purified recombinant PI3Kα (catalogue No. 14-602-K), PI3Kβ (catalogue No. 14-603-K), PI3Kγ (catalogue No. 14-558-K) and PI3Kδ (catalogue No. 14-604-K) were obtained from Millipore Corporation. Purified recombinant PI3K enzyme was used to catalyze the phosphorylation of phosphatidylinositol 4,5-bisphosphate (PIP2 at 10 μM) to phosphatidylinositol 3,4,5-trisphosphate (PIP3) in the presence of 10 μM ATP. The assay was carried out in 384-well format and detected using a Perkin Elmer EnVision Xcite Multilabel Reader. Emission ratios were converted into percent inhibitions and imported into GraphPad Prism software. The concentration necessary to achieve inhibition of enzyme activity by 50% (IC50) was calculated using concentrations ranging from 20 μM to 0.1 nM (12-point curve). IC50 values were determined using a nonlinear regression model available in GraphPad Prism 5. […]
# [2] = target: T2, PI3Kγ (Homo sapiens, UniProt P48736); experiment: PI3-Kinase HTRF assay, PI3Kγ; type: biochemical; conditions: 10 μM ATP, PIP2 at 10 μM
# T2 construct: purchased Millipore Corporation 14-558-K
# From the text: as §1, §2
# [3] = target: T3, PI3Kα (Homo sapiens, UniProt P42336); experiment: PI3-Kinase HTRF assay, PI3Kα; type: biochemical; conditions: 10 μM ATP, PIP2 at 10 μM, read-out: IC50 P13Kα
# T3 construct: purchased Millipore Corporation 14-602-K
# Outline: (§3)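 Competitive time-resolved FRET readout of PIP3 formed from 10 μM PIP2 with 10 μM ATP, 1 h at room temperature, by each recombinant human isoform (α, β, γ, δ; 0.25-0.3 μg/ml). Compound (2% DMSO final) was preincubated 15 min with enzyme and substrate; IC50 fitted over 20 μM–0.1 nM, 12 points.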
# [4] = target: T4, PI3Kβ (Homo sapiens, UniProt P42338); experiment: PI3-Kinase HTRF assay, PI3Kβ; type: biochemical; conditions: bins Greater than 10 μM and Greater than 1 μM to 10 μM; 10 μM ATP, PIP2 at 10 μM
# T4 construct: purchased Millipore Corporation 14-603-K
# Outline: as §3
# [5] = system: Balb/c splenic B cells; experiment: B cell activation and proliferation assay; type: cell-based; conditions: Mus musculus, read-out: B cell proliferation EC50
# Outline: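 Read-out is metabolic activity by Alamar Blue reduction (5 h, 560Ex/590Em) after 72 h at 37° C, reported as IC50 or EC50. Compound (0.2% DMSO) was added 30 min before a cocktail holding 10 μg/ml LPS or 5 μg/ml F(ab′)2 anti-IgM with 2 ng/ml mouse IL4. Cells were purified Balb/c splenic B cells, 50.000 per well.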
# [6] = control or reference compounds, 5 μM; cited from earlier work
# [7] = system: phospho-AKT in RAJI cells (PI3Kδ); experiment: PI3Kδ selective assay, phospho-AKT in RAJI cells; type: cell-based; conditions: RAJI cells stimulated with anti-human IgM; read-out: IC50 for phospho-AKT, RAJI cell model
# Outline: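 Serum-starved RAJI B-lymphoma cells stimulated with anti-human IgM to trigger B-cell receptor signaling; compound effect read as reduction of phospho-AKT, for example detected with phospho-AKT antibodies.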
# [8] = system: phospho-AKT in RAW 264.7 cells (PI3Kγ); experiment: PI3Kγ selective assay, phospho-AKT in RAW 264.7 cells; type: cell-based; conditions: Mus musculus, RAW264.7, stimulated with C5a, read-out: IC50 for phospho-AKT, RAW 264.7 cell model
# Outline: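 Serum-starved RAW 264.7 macrophages are stimulated with the GPCR agonist C5a and treated with compound before, with or after stimulation. Inhibition is read as reduced C5a-induced phospho-AKT, detected for example with phospho-AKT antibodies.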
# [9] = system: phospho-AKT in SKOV-3 cells (PI3Kα); experiment: PI3Kα selective assay, phospho-AKT in SKOV-3 cells; type: cell-based; conditions: Homo sapiens, SK-OV-3, read-out: IC50 for phospho-AKT, SKOV-3 cell model
# From the text: (§4) A compound's ability in selectively inhibiting PI3Kα can be assessed using SKOV-3 cells, i.e., human ovarian carcinoma cell line. Briefly, SKOV-3 cells, in which mutant PI3Kα is constitutively active, can be treated with test compounds. Test compounds' ability to inhibit AKT phosphorylation in SKOV-3 cells, therefore, is indicative of selective inhibition of PI3Kα. Thus, by monitoring the reduction of phospho-AKT in SKOV-3 cells (using for example, phospho-AKT antibodies), a compound's potential efficacy in selectively inhibiting PI3Kα can be assessed.
# Certain compounds provided herein (e.g., Compounds 5, 49, 138, 326, 328, 354, 359, 389, and 391) were tested in SKOV-3 cell model using procedures as described above.
# [10] = system: phospho-AKT in 786-O cells (PI3Kβ); experiment: PI3Kβ selective assay, phospho-AKT in 786-O cells; type: cell-based; conditions: Homo sapiens, 786-0, read-out: IC50 for phospho-AKT, 786-O cell model
# From the text: as §4, with “PI3Kβ” for “PI3Kα”, “786-O” for “SKOV-3”, “kidney” for “ovarian”, “PI3Kβ” for “mutant PI3Kα”, “PI3β.” for “PI3Kα.”
# Certain compounds provided herein (e.g., Compounds 5, 49, 138, 326, 328, 354, 359, 389, and 391) were tested in 786-O cell model using procedures as described above.
# [11] = system: NZB/W model; conditions: profilactic and therapeutic model; reductions in auto-antibody production, kidney damage, improvements in survival; cited from earlier work
# [12] = system: B6.Slez.Sle3z model; conditions: cited from earlier work
# [13] = PBS at pH 7.4, 37° C., 24 hours; cited from earlier work
# [14] = column bins 1 μM to 100 nM (given as 100-1000) and Less than 100 nM
# [15] = bins Greater than 10 μM and Greater than 1 μM to 10 μM
# [16] = ranges less than 100 nM and between 100 nM and 1 μM (given as 100-1000)
# [17] = ranges between 1 μM and 10 μM and greater than 10 μM
# [18] = range between 100 nM and 1 μM (given as 100-1000)
# T1 sequence (O00329 whole entry): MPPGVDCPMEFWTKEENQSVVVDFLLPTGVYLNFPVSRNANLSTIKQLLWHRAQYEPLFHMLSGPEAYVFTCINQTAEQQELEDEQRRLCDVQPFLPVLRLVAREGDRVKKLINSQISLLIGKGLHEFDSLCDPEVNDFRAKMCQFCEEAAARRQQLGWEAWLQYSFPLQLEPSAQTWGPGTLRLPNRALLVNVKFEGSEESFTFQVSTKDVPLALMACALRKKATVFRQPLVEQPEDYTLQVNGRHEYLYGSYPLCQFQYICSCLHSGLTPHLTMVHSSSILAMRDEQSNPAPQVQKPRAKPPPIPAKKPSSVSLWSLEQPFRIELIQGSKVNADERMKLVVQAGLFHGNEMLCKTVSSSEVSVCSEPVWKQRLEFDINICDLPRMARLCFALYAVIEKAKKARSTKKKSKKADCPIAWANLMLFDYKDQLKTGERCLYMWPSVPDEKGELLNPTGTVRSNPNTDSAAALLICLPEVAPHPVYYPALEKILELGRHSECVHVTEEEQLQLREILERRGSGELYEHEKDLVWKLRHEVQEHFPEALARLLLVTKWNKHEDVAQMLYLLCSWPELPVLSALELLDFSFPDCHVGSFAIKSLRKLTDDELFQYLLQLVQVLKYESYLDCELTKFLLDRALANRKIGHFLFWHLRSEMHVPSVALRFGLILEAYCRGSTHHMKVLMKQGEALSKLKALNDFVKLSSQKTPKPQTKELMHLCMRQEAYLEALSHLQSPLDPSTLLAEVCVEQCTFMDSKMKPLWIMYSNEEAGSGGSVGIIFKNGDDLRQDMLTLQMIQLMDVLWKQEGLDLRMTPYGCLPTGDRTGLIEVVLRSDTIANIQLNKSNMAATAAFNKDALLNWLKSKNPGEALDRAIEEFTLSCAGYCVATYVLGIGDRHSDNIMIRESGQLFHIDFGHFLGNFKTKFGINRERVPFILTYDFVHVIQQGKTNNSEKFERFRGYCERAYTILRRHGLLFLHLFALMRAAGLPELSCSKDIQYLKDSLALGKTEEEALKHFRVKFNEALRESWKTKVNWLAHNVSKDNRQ
# T1 sequence (P27986 whole entry partner): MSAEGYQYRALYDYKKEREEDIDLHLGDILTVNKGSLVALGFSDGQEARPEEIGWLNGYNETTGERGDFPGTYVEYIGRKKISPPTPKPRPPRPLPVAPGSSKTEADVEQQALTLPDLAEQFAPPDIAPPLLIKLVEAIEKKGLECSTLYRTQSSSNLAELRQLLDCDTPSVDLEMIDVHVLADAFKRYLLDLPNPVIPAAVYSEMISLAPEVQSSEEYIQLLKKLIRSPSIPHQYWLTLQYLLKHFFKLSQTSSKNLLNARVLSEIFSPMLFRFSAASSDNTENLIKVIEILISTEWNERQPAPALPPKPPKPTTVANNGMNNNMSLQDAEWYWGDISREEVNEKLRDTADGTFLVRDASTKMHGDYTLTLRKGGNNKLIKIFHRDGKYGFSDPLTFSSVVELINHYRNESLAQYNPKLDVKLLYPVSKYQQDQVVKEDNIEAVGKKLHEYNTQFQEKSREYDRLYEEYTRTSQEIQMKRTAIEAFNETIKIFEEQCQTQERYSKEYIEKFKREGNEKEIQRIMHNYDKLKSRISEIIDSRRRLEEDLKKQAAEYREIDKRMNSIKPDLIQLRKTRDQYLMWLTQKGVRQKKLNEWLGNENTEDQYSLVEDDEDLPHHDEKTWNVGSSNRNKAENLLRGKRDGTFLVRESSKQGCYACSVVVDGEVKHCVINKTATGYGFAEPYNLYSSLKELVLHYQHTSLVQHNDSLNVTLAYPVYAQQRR
# T4 sequence (P42338 whole entry): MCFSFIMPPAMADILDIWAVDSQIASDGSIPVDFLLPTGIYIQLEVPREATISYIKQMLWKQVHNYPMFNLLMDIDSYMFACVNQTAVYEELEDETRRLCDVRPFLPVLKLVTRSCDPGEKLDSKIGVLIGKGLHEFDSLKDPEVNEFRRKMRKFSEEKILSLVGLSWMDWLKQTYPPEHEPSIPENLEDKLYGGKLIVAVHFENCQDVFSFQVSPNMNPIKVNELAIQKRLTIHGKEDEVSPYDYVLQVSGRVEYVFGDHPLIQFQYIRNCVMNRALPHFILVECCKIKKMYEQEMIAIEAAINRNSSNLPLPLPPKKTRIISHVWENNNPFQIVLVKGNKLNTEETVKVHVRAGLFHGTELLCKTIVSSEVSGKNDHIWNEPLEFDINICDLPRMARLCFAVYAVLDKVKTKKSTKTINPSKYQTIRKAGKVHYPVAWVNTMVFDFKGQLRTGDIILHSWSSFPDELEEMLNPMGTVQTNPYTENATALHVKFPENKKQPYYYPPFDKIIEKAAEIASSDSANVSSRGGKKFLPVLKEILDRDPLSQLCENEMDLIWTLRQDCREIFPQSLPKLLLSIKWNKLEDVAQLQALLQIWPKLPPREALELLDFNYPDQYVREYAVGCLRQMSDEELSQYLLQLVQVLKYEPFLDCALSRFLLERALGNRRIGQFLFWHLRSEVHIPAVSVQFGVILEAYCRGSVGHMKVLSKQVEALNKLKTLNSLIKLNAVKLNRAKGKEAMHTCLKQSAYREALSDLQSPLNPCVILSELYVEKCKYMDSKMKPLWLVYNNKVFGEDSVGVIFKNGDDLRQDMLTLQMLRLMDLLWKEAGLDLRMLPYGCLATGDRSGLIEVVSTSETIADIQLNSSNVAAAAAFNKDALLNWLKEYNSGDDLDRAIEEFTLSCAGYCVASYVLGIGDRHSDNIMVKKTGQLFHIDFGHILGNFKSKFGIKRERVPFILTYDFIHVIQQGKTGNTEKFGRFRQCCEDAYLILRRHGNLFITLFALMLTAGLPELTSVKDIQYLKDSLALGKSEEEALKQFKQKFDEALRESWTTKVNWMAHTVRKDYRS
# T4 sequence (P27986 whole entry partner): as the sequence (P27986 whole entry partner) above
# T3 sequence (P42336 whole entry): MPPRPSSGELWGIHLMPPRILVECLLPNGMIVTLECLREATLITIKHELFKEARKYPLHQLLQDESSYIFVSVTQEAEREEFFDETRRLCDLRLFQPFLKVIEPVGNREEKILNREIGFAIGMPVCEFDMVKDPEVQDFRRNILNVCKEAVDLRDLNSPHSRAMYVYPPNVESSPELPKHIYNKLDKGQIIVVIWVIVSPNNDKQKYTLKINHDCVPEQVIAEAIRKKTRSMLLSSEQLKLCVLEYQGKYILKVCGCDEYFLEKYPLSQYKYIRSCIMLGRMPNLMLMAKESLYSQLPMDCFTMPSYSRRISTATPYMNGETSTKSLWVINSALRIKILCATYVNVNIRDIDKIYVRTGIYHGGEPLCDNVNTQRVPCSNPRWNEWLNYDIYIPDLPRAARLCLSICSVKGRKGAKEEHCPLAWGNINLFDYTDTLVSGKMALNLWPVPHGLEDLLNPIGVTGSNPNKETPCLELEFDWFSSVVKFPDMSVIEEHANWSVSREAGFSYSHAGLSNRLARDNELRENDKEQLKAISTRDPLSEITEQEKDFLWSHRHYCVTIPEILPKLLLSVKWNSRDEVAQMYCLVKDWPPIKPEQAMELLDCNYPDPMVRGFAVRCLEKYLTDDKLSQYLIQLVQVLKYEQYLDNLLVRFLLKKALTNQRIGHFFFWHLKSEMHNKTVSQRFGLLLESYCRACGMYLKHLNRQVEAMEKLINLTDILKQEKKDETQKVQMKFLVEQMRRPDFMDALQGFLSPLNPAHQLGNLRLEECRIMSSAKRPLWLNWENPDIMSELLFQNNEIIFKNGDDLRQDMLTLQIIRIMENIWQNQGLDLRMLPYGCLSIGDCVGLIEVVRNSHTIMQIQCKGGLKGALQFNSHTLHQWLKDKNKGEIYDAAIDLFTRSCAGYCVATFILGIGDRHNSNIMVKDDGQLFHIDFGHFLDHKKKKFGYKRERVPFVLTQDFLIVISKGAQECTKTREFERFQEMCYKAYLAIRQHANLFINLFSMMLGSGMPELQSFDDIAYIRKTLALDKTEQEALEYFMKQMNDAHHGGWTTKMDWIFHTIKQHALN
# T3 sequence (P27986 whole entry partner): as the sequence (P27986 whole entry partner) above
# T2 sequence (P48736 whole entry): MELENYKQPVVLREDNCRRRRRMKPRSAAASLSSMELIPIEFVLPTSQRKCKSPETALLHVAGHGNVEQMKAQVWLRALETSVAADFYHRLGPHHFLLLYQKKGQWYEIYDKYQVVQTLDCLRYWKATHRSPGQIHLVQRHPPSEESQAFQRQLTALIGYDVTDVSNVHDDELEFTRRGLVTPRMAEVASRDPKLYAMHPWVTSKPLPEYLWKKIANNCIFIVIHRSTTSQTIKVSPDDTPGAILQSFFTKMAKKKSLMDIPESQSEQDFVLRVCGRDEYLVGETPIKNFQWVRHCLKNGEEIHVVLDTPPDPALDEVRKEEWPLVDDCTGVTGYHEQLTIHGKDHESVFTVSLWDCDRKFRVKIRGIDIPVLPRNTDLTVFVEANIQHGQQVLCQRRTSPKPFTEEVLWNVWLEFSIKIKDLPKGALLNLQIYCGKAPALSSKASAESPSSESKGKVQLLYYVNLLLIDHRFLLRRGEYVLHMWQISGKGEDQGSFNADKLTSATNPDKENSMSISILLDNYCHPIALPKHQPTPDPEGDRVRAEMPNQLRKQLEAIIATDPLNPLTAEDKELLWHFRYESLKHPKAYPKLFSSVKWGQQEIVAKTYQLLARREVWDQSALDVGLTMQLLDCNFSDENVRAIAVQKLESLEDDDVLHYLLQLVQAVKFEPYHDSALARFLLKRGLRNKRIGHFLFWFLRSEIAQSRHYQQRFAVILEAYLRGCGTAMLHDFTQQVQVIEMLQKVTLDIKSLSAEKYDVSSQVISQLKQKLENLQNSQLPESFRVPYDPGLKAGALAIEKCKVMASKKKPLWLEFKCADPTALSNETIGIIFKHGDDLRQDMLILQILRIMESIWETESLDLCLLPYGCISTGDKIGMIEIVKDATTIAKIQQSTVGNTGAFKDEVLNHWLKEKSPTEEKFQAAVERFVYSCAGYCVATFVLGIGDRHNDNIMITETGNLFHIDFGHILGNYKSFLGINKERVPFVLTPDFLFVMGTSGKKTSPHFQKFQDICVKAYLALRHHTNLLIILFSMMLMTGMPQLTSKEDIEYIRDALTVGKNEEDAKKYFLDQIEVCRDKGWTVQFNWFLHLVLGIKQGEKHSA
smiles,measurement,setting,value
CCOc1cncc(-c2cccc3cc([C@H](C)Nc4nc(N)ncc4C#N)n(-c4ccccc4)c(=O)c23)c1 [Compound 115],IC50,[1]; [14],< 100 nM
same,IC50,[2]; [14],< 100 nM
same,IC50,[3]; [14],100 to 1000 nM
same,IC50,[4],1000 to 10000 nM
same,EC50,[5]; [14],< 100 nM
CCCOc1cc(N)ccc1C(=O)OCCN(CC)CC [propoxycaine],plasma stability,[6],low plasma stability
CC(C)n1c([C@H](C)Nc2nc(N)ncc2C#N)cc2cccc(-c3ccc(=O)n(C)c3)c2c1=O [Compound 326],IC50,[3]; [15],1000 to 10000 nM
same,IC50,[4],1000 to 10000 nM
same,IC50,[7],< 100 nM
same,IC50,[8]; [16],100 to 1000 nM
same,IC50,[9]; [17],1000 to 10000 nM
same,IC50,[10]; [18],100 to 1000 nM
C[C@H](Nc1nc(N)ncc1C#N)c1cc2cccc(-c3cccc(N(C)S(C)(=O)=O)c3)c2c(=O)n1-c1ccccc1 [Compound 153],IC50,[1]; [14],< 100 nM
same,IC50,[2]; [14],< 100 nM
same,IC50,[3]; [14],100 to 1000 nM
same,IC50,[4],1000 to 10000 nM
same,EC50,[5]; [14],< 100 nM
CC(C)n1c([C@H](C)Nc2ncnc(N)c2C#N)cc2cccc(-c3ccc(=O)n(C)c3)c2c1=O [Compound 359],IC50,[3]; [15],1000 to 10000 nM
same,IC50,[4],1000 to 10000 nM
same,IC50,[7],< 100 nM
same,IC50,[8]; range between 1 μM and 10 μM,1000 to 10000 nM
same,IC50,[9]; [17],1000 to 10000 nM
same,IC50,[10]; [18],100 to 1000 nM
C[C@H](Nc1nc(N)ncc1C(=O)C1CC1)c1cc2cccc(Cl)c2c(=O)n1-c1ccccc1 [Compound 425],IC50,[1]; [15],1000 to 10000 nM
same,IC50,[2]; [15],1000 to 10000 nM
same,IC50,[3]; [15],1000 to 10000 nM
same,IC50,[7],< 100 nM
same,IC50,[8]; [16],100 to 1000 nM
COc1ncc(-c2cccc3cc([C@H](C)Nc4nc(N)ncc4-c4cncs4)n(-c4ccccc4)c(=O)c23)cn1 [Compound 389],IC50,[3]; [15],1000 to 10000 nM
same,IC50,[4],1000 to 10000 nM
same,IC50,[7],< 100 nM
same,IC50,[8]; [16],100 to 1000 nM
same,IC50,[9]; [17],1000 to 10000 nM
same,IC50,[10]; [17],1000 to 10000 nM
C[C@H](Nc1nc(N)ncc1C#N)c1cc2cccc(Cl)c2c(C(=O)NC2CCOCC2)n1 [Compound 354],IC50,[1]; [15],1000 to 10000 nM
same,IC50,[7],< 100 nM
same,IC50,[8]; range between 1 μM and 10 μM,1000 to 10000 nM
same,IC50,[9]; [17],> 10000 nM
same,IC50,[10]; [17],1000 to 10000 nM
COc1cc(N[C@@H](C)c2cc3cccc(Cl)c3c(=O)n2-c2ccccc2)nc(N)n1 [Compound 211],IC50,[1]; [15],1000 to 10000 nM
same,IC50,[2]; [15],1000 to 10000 nM
same,EC50,[5]; Greater than 1 μM to 10 μM,1000 to 10000 nM
CC(C)[N+](C)(CCOC(=O)C1c2ccccc2Oc2ccccc21)C(C)C [propantheline],plasma stability,[6],intermediate plasma stability
CCOc1nc(-c2cnc(N)nc2N[C@@H](C)c2cc3cccc(-c4ccc(=O)n(C)c4)c3c(=O)n2-c2ccccc2)cs1 [Compound 138],IC50,[3]; [15],1000 to 10000 nM
same,IC50,[4],1000 to 10000 nM
same,IC50,[7],< 100 nM
same,IC50,[8]; [16],< 100 nM
same,IC50,[9]; [18],100 to 1000 nM
same,IC50,[10]; [17],1000 to 10000 nM
CCc1ncc(-c2cccc3nc([C@H](C)Nc4nc(N)ncc4C#N)n(-c4ccccc4)c(=O)c23)cn1 [Compound 60],IC50,[1]; [14],< 100 nM
same,IC50,[2]; [14],< 100 nM
same,IC50,[3]; [15],> 10000 nM
same,IC50,[4],> 10000 nM
same,EC50,[5]; [14],< 100 nM
"CC(C)C[C@H](NC(=O)[C@H](Cc1ccccc1)NC(=O)c1cnccn1)B(O)O [Bortezimib, bortezomib]",blocking disease in the NZB/W model,[11],effective at blocking disease
COc1cc(-c2cccc3cc([C@H](C)Nc4nc(N)ncc4C#N)n(-c4ccccc4)c(=O)c23)ccn1 [Compound 49],IC50,[4],1000 to 10000 nM
same,EC50,[5]; [14],< 100 nM
same,IC50,[7],< 100 nM
same,IC50,[8]; [16],< 100 nM
same,IC50,[9]; [17],1000 to 10000 nM
same,IC50,[10]; [17],1000 to 10000 nM
"CO[C@H]1C[C@@H]2CC[C@@H](C)[C@@](O)(O2)C(=O)C(=O)N2CCCC[C@H]2C(=O)O[C@H]([C@H](C)C[C@@H]2CC[C@@H](OCCO)[C@H](OC)C2)CC(=O)[C@H](C)/C=C(\C)[C@@H](O)[C@@H](OC)C(=O)[C@H](C)C[C@H](C)/C=C/C=C/C=C/1C [RAD001, everolimus]",lupus symptoms,[12],ameliorate lupus symptoms
O=C(O)CCCc1ccc(N(CCCl)CCCl)cc1 [chlorambucil],chemical stability,[13],largely hydrolyzed
Cc1ncc(-c2cccc3cc([C@H](C)Nc4nc(N)ncc4C#N)n(C(C)C)c(=O)c23)cn1 [Compound 328],IC50,[2]; [15],1000 to 10000 nM
same,IC50,[7],< 100 nM
same,IC50,[8]; [16],100 to 1000 nM
same,IC50,[9]; [18],100 to 1000 nM
same,IC50,[10]; [17],1000 to 10000 nM
"COc1ncc(-c2cccc3cc([C@H](C)Nc4nc(N)ncc4C#N)n(-c4ccccc4)c(=O)c23)cn1 [Compound 5, (S)-2-amino-4-((1-(8-(2-methoxypyrimidin-5-yl)-1-oxo-2-phenyl-1,2-dihydroisoquinolin-3-yl)ethyl)amino)pyrimidine-5-carbonitrile]",IC50,[3]; [15],1000 to 10000 nM
same,EC50,[5]; [14],< 100 nM
same,IC50,[7],< 100 nM
same,IC50,[8]; [16],< 100 nM
same,IC50,[9]; [17],1000 to 10000 nM
same,IC50,[10]; [17],> 10000 nM
COc1nc(-c2cnc(N)nc2N[C@@H](C)c2cc3cccc(-c4ccc(=O)n(C)c4)c3c(=O)n2-c2ccccc2)cs1 [Compound 391],IC50,[7],< 100 nM
same,IC50,[8]; [16],100 to 1000 nM
same,IC50,[9]; [17],> 10000 nM
same,IC50,[10]; [17],> 10000 nM
